# Results published in ChEMBL document CHEMBL4020784, “Syntheses of prodrug-type phosphotriester oligonucleotides responsive to intracellular reducing environment for improvement of cell membrane permeability and nuclease resistance” (Bioorg Med Chem Lett, 2017).
# How the values were obtained:
# [1] = Metabolic stability in 10% fetal bovine serum assessed as compound remaining at 37 degC by RP-HPLC method; format: ADME, cell-free, Bos taurus; details: cattle
# [2] = Chemical stability in CD3CN up to 7 days by 31P NMR method; format: physicochemical; details: read-out: Stability
Structure (SMILES),half-life [1] [h],remaining at 168 h [2] [%]
Cc1cn([C@H]2C[C@H](OP(=O)(O)OC[C@H]3O[C@@H](n4cc(C)c(=O)[nH]c4=O)C[C@@H]3OP(=O)(O)OC[C@H]3O[C@@H](n4cc(C)c(=O)[nH]c4=O)C[C@@H]3OP(=O)(O)OC[C@H]3O[C@@H](n4cc(C)c(=O)[nH]c4=O)C[C@@H]3OP(=O)(O)OC[C@H]3O[C@@H](n4cc(C)c(=O)[nH]c4=O)C[C@@H]3OP(=O)(O)OC[C@H]3O[C@@H](n4cc(C)c(=O)[nH]c4=O)C[C@@H]3OP(=O)(O)OC[C@H]3O[C@@H](n4cc(C)c(=O)[nH]c4=O)C[C@@H]3OP(=O)(O)OC[C@H]3O[C@@H](n4cc(C)c(=O)[nH]c4=O)C[C@@H]3OP(=O)(O)OC[C@H]3O[C@@H](n4cc(C)c(=O)[nH]c4=O)C[C@@H]3OP(=O)(O)OC[C@H]3O[C@@H](n4cc(C)c(=O)[nH]c4=O)C[C@@H]3O)[C@@H](CO)O2)c(=O)[nH]c1=O,< 1.5,
Cc1cn([C@H]2C[C@H](OP(=O)(O)OC[C@H]3O[C@@H](n4cc(C)c(=O)[nH]c4=O)C[C@@H]3OP(=O)(O)OC[C@H]3O[C@@H](n4cc(C)c(=O)[nH]c4=O)C[C@@H]3OP(=O)(O)OC[C@H]3O[C@@H](n4cc(C)c(=O)[nH]c4=O)C[C@@H]3OP(=O)(O)OC[C@H]3O[C@@H](n4cc(C)c(=O)[nH]c4=O)C[C@@H]3OP(=O)(O)OC[C@H]3O[C@@H](n4cc(C)c(=O)[nH]c4=O)C[C@@H]3OP(=O)(O)OC[C@H]3O[C@@H](n4cc(C)c(=O)[nH]c4=O)C[C@@H]3OP(=O)(O)OC[C@H]3O[C@@H](n4cc(C)c(=O)[nH]c4=O)C[C@@H]3OP(=O)(O)OC[C@H]3O[C@@H](n4cc(C)c(=O)[nH]c4=O)C[C@@H]3OP(=O)(OC[C@H]3O[C@@H](n4cc(C)c(=O)[nH]c4=O)C[C@@H]3O)O[C@@H]3CSSC[C@H]3OCc3ccccc3)[C@@H](CO)O2)c(=O)[nH]c1=O (stereo partly drawn),> 23.3,
COc1ccc(C(OC[C@H]2O[C@@H](n3cc(C)c(=O)[nH]c3=O)C[C@@H]2OP(OC2CSSCC2OCc2ccccc2)N(C(C)C)C(C)C)(c2ccccc2)c2ccc(OC)cc2)cc1 (stereo partly drawn),,95
